Reference: patent US20250127907A1, “PARP INHIBITORS” (Stablix, Inc., priority 2023, published 2025)
Like-named read-outs stand apart in the source and are kept apart here.

How the values were obtained:
Format in all cases: cell-based
[1] = system: Poly/Mono-ADP Ribose in U2OS cells; assay: PAR in cell western assay (parylation) in U2OS cells; conditions: Homo sapiens, read-out: Parylation (U2OS)
Experimental: U2OS cells are seeded at 2667 cells per well in 24 ul medium into poly-D lysine-coated 384 well plate and incubated in the TC incubator for O/N
The next day, test comps are diluted in a source plate and 6 μL of the diluted comp is added to the cell plate; mixed well and incubated for 6 hrs. DNA damage is induced with 2 mM H2O2 for 10 min. After discarding the medium, cells are fixed in ice cold Methanol at for 20 min at −20C. After a wash step at room temperature, cells are permeabilized with 0.05% NP-40 in PBS for 10 min, followed by wash steps. Cells are blocked with 1% BSA, at room temperature for 1 hr. Cells are stained with anti mono/polyADP ribose antibody (E6F6A, Cell signaling, 1:5000) in 1×PBS/1% BSA/0.05% Tween o/n at 4C.
Next Day, cells are washed and incubated with anti-Rabbit 800CV (Licor antibody, 1:500) and CellTag 700 (Licor, 1:800) in 1×PBS/1% BSA/0.05% Tween for 1 h. After washing, plates are scanned using LICOR and are quantified.
Parylation inhibition is reported as % control inhibition.
(§1) The letter codes for the PARP1-enzyme assay include: A (<1 nM), B (>1-10 nM), C (>10-100 nM), D (>100-1000 nM), E (>1000 nM), and “-” is not tested. The letter codes for the PARP trapping assay, and parylation assay include: A (<10 nM), B (>10-100 nM), C (>100-1000 nM), […], E (>10000 nM), and “-” is not tested.

A2780 cells = assay: Cell proliferation assay (A2780); conditions: Homo sapiens, 168 h, 7 days
Experimental: (§2) Cells are counted, diluted to desired density and 40 μL of cell suspension is added into each 384-well tissue-culture treated plates. Plates are incubated in Tissue Culture incubator at 37° C./5% C02 overnight.
(§3) Next day, 40 nl test compounds that are prepared from source plates are transferred to the seeded cells from overnight. Plates are incubated at 37° C./5% C02 for a total of 7 days. After 7-day incubation, plates are equilibrated to room temperature and 30 ul of Cell Counting-Lite is added to each well for a 30 min incubation followed by reading on EnVision.
(§4) The letter codes for the cell proliferation assay in A2780, HCC1806, and MDA-MB-436 cells include: A (<10 nM), B (>10-100 nM), C (>100-1000 nM), D (>1000-10000 nM), E (>10000 nM), and “-” is not tested.

HCC1806 cells = assay: Cell proliferation assay (HCC1806); conditions: Homo sapiens, 168 h, 7 days
Experimental: as §2, §3, §4

MDA-MB-436 cells = assay: Cell proliferation assay (MDA-MB-436); conditions: Homo sapiens, 168 h, 7 days
Experimental: as §2, §3, §4

PARP1 = PARP1 (Homo sapiens, UniProt P09874); assay: PARP trapping assay in U2OS cells; design: endogenous in cells; host or cells: U2OS; conditions: U2OS cells, MMS, 4 hrs; read-out: PARP Trapping (U2OS)
Experimental: U2OS cells are seeded at 15,000 cells/well in 90 ul medium and incubated in the TC incubator for overnight.
Next day, test compounds are prepared in a source plate along with addition of DNA damage reagent MMS simultaneously and 10 ul of the diluted mixture is added to the cell plate and incubated for 4 hrs under T/C conditions.
After 4 hrs, following aspiration and washing, add 100 ul of cold cytoskeleton removal buffer (0.5% Triton X-100) and incubated for 10 min. At the end of incubation, slowly the buffer is removed, and cells are fixed with ice cold MeOH for 15 min at −20C. Followed by wash steps, cells are blocked with 1×PBS/3% BSA/0.05% Tween for 1 h at room temperature.
Cells are stained with anti PARP1 antibody (abeam ab227244, 1:1000), in 1×PBS/1% BSA overnight at 4C.
Wash and add DAPI, scan cells in Celigo.
Data Analysis: DAPI staining is used to segment nuclei and AF488 fluorescence intensity per nucleus is measured.
as §1

PARP1, sequence (P09874 whole entry): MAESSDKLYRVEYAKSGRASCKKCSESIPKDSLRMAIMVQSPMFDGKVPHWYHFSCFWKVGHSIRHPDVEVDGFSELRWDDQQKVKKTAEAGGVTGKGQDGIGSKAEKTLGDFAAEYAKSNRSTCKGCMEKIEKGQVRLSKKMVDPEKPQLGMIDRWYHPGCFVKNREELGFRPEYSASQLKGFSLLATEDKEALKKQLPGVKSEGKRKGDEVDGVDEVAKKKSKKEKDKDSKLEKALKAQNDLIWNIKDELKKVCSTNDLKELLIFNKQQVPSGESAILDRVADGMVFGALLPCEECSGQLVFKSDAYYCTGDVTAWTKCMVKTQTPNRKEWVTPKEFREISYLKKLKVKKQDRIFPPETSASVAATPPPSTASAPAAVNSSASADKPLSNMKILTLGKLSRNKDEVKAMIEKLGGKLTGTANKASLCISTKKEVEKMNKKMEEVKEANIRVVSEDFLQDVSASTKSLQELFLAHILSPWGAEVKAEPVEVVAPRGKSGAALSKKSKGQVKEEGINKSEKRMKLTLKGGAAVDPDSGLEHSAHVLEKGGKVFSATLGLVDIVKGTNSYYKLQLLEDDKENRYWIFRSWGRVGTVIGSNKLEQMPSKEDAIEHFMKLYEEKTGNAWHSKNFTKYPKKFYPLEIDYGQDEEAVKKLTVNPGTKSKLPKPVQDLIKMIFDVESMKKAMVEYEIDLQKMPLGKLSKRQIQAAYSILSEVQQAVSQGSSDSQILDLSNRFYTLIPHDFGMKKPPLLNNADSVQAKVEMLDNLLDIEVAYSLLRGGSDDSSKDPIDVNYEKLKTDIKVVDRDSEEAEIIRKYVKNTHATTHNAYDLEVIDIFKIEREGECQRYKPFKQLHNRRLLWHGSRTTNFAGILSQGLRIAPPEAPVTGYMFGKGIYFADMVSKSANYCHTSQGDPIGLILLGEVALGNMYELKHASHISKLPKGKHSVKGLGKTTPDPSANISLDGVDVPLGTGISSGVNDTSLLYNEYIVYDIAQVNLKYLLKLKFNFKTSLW

Row | Compound | IC50 ([1]; U2OS cells, 6 hrs, 2 mM H2O2) [nM] | IC50 (A2780 cells) [nM] | IC50 (HCC1806 cells) [nM] | IC50 (MDA-MB-436 cells) [nM] | IC50 (PARP1) [nM] | IC50 ([1]; U2OS, 6 h) [nM]
1 | CC(C)(C)C(=O)N1CCC[C@@H](c2cccc(C(=O)N[C@@H](C(=O)N3C4CCC3CC(OC3CCN(CC(=O)N5CCN(C(=O)c6cc(Cc7n[nH]c(=O)c8ccccc78)ccc6F)CC5)CC3)C4)C3CCCCC3)c2F)C1 (stereo partly shown) [Compound I-971] | 10 to 100 | 10 to 100 | 100 to 1000 | < 10 | 10 to 100 | –
2 | CC(C)(C)OC(=O)N[C@@H](C(=O)N1CCC(C)(OC2CCN(CC(=O)N3CCN(C(=O)c4cc(Cc5n[nH]c(=O)c6ccccc56)ccc4F)CC3)CC2)CC1)C1CCCCC1 [Compound I-871] | 10 to 100 | 100 to 1000 | 100 to 1000 | < 10 | 10 to 100 | –
3 | CC1(C(=O)N2CC(c3cccc(C(=O)N[C@@H](C(=O)N4CCC(OC5CCN(CC(=O)N6CCN(C(=O)c7cc(Cc8n[nH]c(=O)c9ccccc89)ccc7F)CC6)CC5)CC4)C4CCCCC4)c3F)CCC2(C)C)CC1 (stereo partly shown) [Compound I-884] | 100 to 1000 | 10 to 100 | 10 to 100 | < 10 | 10 to 100 | –
4 | CC1(C(=O)N2CCC(c3cccc(C(=O)N[C@@H](C(=O)N4CCC(OC5CCN(CC(=O)N6CCN(C(=O)c7cc(Cc8n[nH]c(=O)c9ccccc89)ccc7F)CC6)CC5)CC4)C4CCCCC4)c3F)CC2)CC1 [Compound I-883] | 10 to 100 | 10 to 100 | 10 to 100 | < 10 | 10 to 100 | –
5 | CC(C)(C)OC(=O)N[C@@H](C(=O)N1C[C@H]2CC[C@@H](C1)[C@H]2OC1CCN(CC(=O)N2CCN(C(=O)c3cc(Cc4n[nH]c(=O)c5ccccc45)ccc3F)CC2)CC1)C1CCCCC1 [Compound I-990] | 10 to 100 | 10 to 100 | 10 to 100 | < 10 | 10 to 100 | –
6 | O=C(CN1CCN(CC2CCN(C(=O)c3c(F)cc(-c4ccccn4)cc3F)CC2)CC1)N1CCN(C(=O)c2cc(Cc3n[nH]c(=O)c4ccccc34)ccc2F)CC1 [Compound I-769] | < 10 | 10 to 100 | 10 to 100 | < 10 | < 10 | –
7 | O=C(N[C@@H](C(=O)N1CCC(OC2CCN(CC(=O)N3CCN(C(=O)c4cc(Cc5n[nH]c(=O)c6ccccc56)ccc4F)CC3)CC2)CC1)C1CCCCC1)c1cccc(C2CCCN(C(=O)C34CC(F)(C3)C4)C2)c1F (stereo partly shown) [Compound I-750] | 10 to 100 | 10 to 100 | 10 to 100 | < 10 | 10 to 100 | –
8 | O=C(N[C@@H](C(=O)N1CCC(OC2CCN(CC(=O)N3CCN(C(=O)c4cc(Cc5n[nH]c(=O)c6ccccc56)ccc4F)CC3)CC2)CC1)C1CCCCC1)c1ccc(N2CCN(C(=O)C3CC3)CC2)cc1F [Compound I-745] | 10 to 100 | – | 10 to 100 | < 10 | 10 to 100 | –
9 | CC(C)(C)OC(=O)Nc1cc(-c2cccc(C#N)c2)cnc1C(=O)NCCOCCNCC(=O)N1CCN(C(=O)c2cc(Cc3n[nH]c(=O)c4ccccc34)ccc2F)CC1 [Compound I-818] | 10 to 100 | 10 to 100 | 100 to 1000 | < 10 | 100 to 1000 | –
10 | CC(C)(C)C(=O)N1CCCC(c2cccc(C(=O)N[C@@H](C(=O)N3CCC(OC4CCN(CC(=O)N5CCN(C(=O)c6cc(Cc7n[nH]c(=O)c8ccccc78)ccc6F)CC5)CC4)CC3)C3CCCCC3)c2F)C1 (stereo partly shown) [Compound I-661] | 100 to 1000 | – | 10 to 100 | < 10 | 10 to 100 | –
11 | O=C(CN1CCN(C[C@@H]2C[C@H]3CC[C@@H]2CN3C(=O)c2c(F)cc(-c3ccccc3)cc2F)CC1)N1CCN(C(=O)c2cc(Cc3n[nH]c(=O)c4ccccc34)ccc2F)CC1 [Compound I-774] | 10 to 100 | 10 to 100 | 10 to 100 | < 10 | – | –
12 | CC1(OC2CCN(CC(=O)N3CCN(C(=O)c4cc(Cc5n[nH]c(=O)c6ccccc56)ccc4F)CC3)CC2)CCN(C(=O)[C@H](NC(=O)c2cccc(C3CCCN(C(=O)C45CC(C4)C5)C3)c2F)C2CCCCC2)CC1 (stereo partly shown) [Compound I-892] | 100 to 1000 | 100 to 1000 | 100 to 1000 | 10 to 100 | 10 to 100 | –
13 | O=C(CN1CCN(CC2CCN(C(=O)c3c(F)cc(-c4ccccc4)cc3F)CC2)CC1)N1CCN(C(=O)c2cc(Cc3n[nH]c(=O)c4ccccc34)ccc2F)CC1 [Compound I-635] | < 10 | < 10 | 10 to 100 | < 10 | 10 to 100 | –
14 | CC1(OC(=O)N[C@@H](C(=O)N2CCC(OC3CCN(CC(=O)N4CCN(C(=O)c5cc(Cc6n[nH]c(=O)c7ccccc67)ccc5F)CC4)CC3)CC2)C2CCCCC2)CCC1 [Compound I-749] | 10 to 100 | 10 to 100 | 10 to 100 | < 10 | 10 to 100 | –
15 | CC1(C(=O)N2CCCC(c3cccc(C(=O)N[C@@H](C(=O)N4CCC(OC5CCN(CC(=O)N6CCN(C(=O)c7cc(Cc8n[nH]c(=O)c9ccccc89)ccc7F)CC6)CC5)CC4)C4CCCCC4)c3F)C2)CC1 (stereo partly shown) [Compound I-660] | 100 to 1000 | – | 10 to 100 | < 10 | 10 to 100 | –
16 | C[C@@H]1CN(CC2CCN(CC(=O)N3CCN(C(=O)c4cc(Cc5n[nH]c(=O)c6ccccc56)ccc4F)CC3)CC2)CCN1C(=O)[C@H](NC(=O)c1cccc([C@@H]2CCCN(C(=O)C(C)(C)C)C2)c1)C1CCCCC1 [Compound I-973] | 100 to 1000 | 100 to 1000 | 100 to 1000 | 10 to 100 | – | –
17 | O=C(c1cc(Cc2n[nH]c(=O)c3ccccc23)ccc1F)N1CCN(C(=O)C2CC2)CC1 [Olaparib, reference compound] | – | 1000 to 10000 | 1000 to 10000 | 10 to 100 | – | < 10
18 | O=C(N[C@@H](C(=O)N1CCC(OC2CCN(CC(=O)N3CCN(C(=O)c4cc(Cc5n[nH]c(=O)c6ccccc56)ccc4F)CC3)CC2)CC1)C1CCCCC1)c1cccc(C2CCCN(C(=O)C34CC(C3)C4)C2)c1F (stereo partly shown) [Compound I-637] | 100 to 1000 | – | 10 to 100 | 100 to 1000 | 10 to 100 | –
19 | O=C(CN1CCC(OC2CCN(C(=O)c3c(F)cc(-c4ccccc4)cc3F)CC2)CC1)N1CCN(C(=O)c2cc(Cc3n[nH]c(=O)c4ccccc34)ccc2F)CC1 [Compound I-634] | < 10 | – | 10 to 100 | < 10 | 10 to 100 | –
20 | O=C(CN1CCC(OC2CCN(C(=O)c3c(F)cc(-c4ccncc4)cc3F)CC2)CC1)N1CCN(C(=O)c2cc(Cc3n[nH]c(=O)c4ccccc34)ccc2F)CC1 [Compound I-727] | < 10 | – | 10 to 100 | < 10 | < 10 | –
21 | O=C(CN1CCN(C[C@@H]2C[C@@H]3CC[C@H]2CN3C(=O)c2c(F)cc(-c3ccccc3)cc2F)CC1)N1CCN(C(=O)c2cc(Cc3n[nH]c(=O)c4ccccc34)ccc2F)CC1 [Compound I-777] | 10 to 100 | 10 to 100 | 10 to 100 | < 10 | – | –
22 | CC(C)(C)C(=O)N1CCC[C@H](c2cccc(C(=O)N[C@@H](C(=O)N3CCC(OC4CCN(CC(=O)N5CCN(C(=O)c6cc(Cc7n[nH]c(=O)c8ccccc78)ccc6F)CC5)CC4)CC3)C3CCCCC3)c2F)C1 [Compound I-910] | 100 to 1000 | 10 to 100 | 10 to 100 | < 10 | – | –
23 | CC(C)(C)C(=O)N1CCC[C@@](F)(c2cccc(C(=O)N[C@@H](C(=O)N3CCC(OC4CCN(CC(=O)N5CCN(C(=O)c6cc(Cc7n[nH]c(=O)c8ccccc78)ccc6F)CC5)CC4)CC3)C3CCCCC3)c2F)C1 [Compound I-994] | 100 to 1000 | 10 to 100 | 10 to 100 | < 10 | – | –
